Measured values reported in patent US20030100590A1, “3-(4,5-dihydroisoxazol-5-yl)benzoylpyrazole” (priority 1999, published 2003).

Columns and labels:
spring wheat = test: greenhouse post-emergence test, crop plant compatibility; assay type: in vivo, Tritricum aestivum; conditions: application rate 125 or 62.5 g/ha a.s., 2 to 4 weeks
Method: (§1) The seeds of the test plants were sown separately for each species. For the post-emergence treatment, the test plants were grown to a plant height of from 3 to 15 cm, depending on the plant habit, and only then treated with the active ingredients which had been suspended or emulsified in water. To this end, the test plants were either sown directly and grown in the same containers, or they were first grown separately as seedlings and transplanted into the test containers a few days prior to treatment. The rate of application for the post-emergence treatment was 125 or 62.5 g/ha a.s. (active substance). Depending on the species, the plants were kept at from 10 to 25° C. and 20 to 35° C., respectively. The test period extended over 2 to 4 weeks. During this time, the plants were tended, and their response to the individual treatments was evaluated. Evaluation was carried out using a scale of from 0 to 100. 100 means no emergence of the plants, or complete destruction of at least the aerial parts, and 0 means no damage or normal course of growth. The plants used in the greenhouse experiments belonged to the following species: [table]

[1] = test system: Avena fatua, Bromus inermis, Matricaria chamomilla, Matricaria inodora; test: greenhouse post-emergence herbicidal test, harmful plants; assay type: in vivo; conditions: application rate 125 or 62.5 g/ha a.s., 2 to 4 weeks
Method: as §1

melting point [°C] | SMILES | compatibility with / damage in the crop plant spring wheat (spring wheat) | herbicidal activity against the abovementioned harmful plants [1]
– | Cc1cc(-c2c(S(C)(=O)=O)ccc(C(=O)c3cnn(C)c3O)c2C)on1 [A] | caused damage | weaker herbicidal activity
> 215 | CC1=NOC(c2c(S(C)(=O)=O)ccc(C(=O)c3cnn(C)c3O)c2Cl)C1 (stereo not shown) [Compound 2.8, 4-[2-Chloro-3-(3-methyl-4,5-dihydroisoxazol-5-yl)-4-methyl-sulfonylbenzoyl]-5-hydroxy-1-methyl-1H-pyrazole] | – | –
> 220 | CC1=NOC(c2c(S(C)(=O)=O)ccc(C(=O)c3cnn(C4CC4)c3O)c2Cl)C1 (stereo not shown) [Compound 2.36, 4-[2-Chloro-3-(3-methyl-4 , 5-dihydroisoxazol-5-yl)-4-methyl-sulfonylbenzoyl]-5-hydroxy-1-cyclopropyl-1H-pyrazole] | – | –
